According to patent US10662195B2, “Protein kinase conjugates and inhibitors” (Celgene Avilomics Research, Inc., priority 2009, dated 2020):
Read-outs that look alike come from different tables or passages of the source.

Legend:
KDR = KDR (Homo sapiens, UniProt P35968); assay: KDR Omnia continuous-read kinase assay; type: biochemical; set-up: purchased Invitrogen or BPS Bioscience PV3660 or 40301
Protocol: (§1) A. KDR and FLT-3 Omnia Assay for Potency Assessment:
(§2) The protocol below describes a continuous-read kinase assay to measure inherent potency of Avila Therapeutics' compounds against active KDR and FLT-3 enzymes. The assay was performed substantially as described by the vendor (Invitrogen, Carlsbad, Calif.; http://www.invitrogen.com/content.cfm?pageid=11338.)
Briefly, 10× stocks of KDR from Invitrogen or BPS Bioscience (PV3660 or 40301) and FLT-3 (PV3182) enzymes, 1.13×ATP (AS001A) and Y9-Sox or Y12-Sox peptide substrates (KCZ1001) were prepared in 1× kinase reaction buffer consisting of 20 mM Tris, pH 7.5, 5 mM MgCl2, 1 mM EGTA, 5 mM β-glycerophosphate, 5% glycerol (10× stock, KB002A) and 0.2 mM DTT (DS001A). 5 μL of enzyme were pre-incubated in a Corning (#3574) 384-well, white, non-binding surface microtiter plate (Corning, N.Y.) for 30 min at 27° C. with a 0.5 μL volume of 50% DMSO and serially diluted compounds prepared in 50% DMSO. Kinase reactions were started with the addition of 45 μL of the ATP/Y9 or Y5-Sox peptide substrate mix and monitored every 30-90 seconds for 60 minutes at λex360/λem485 in a Synergy^4 plate reader from BioTek (Winooski, Vt.). At the conclusion of each assay, progress curves from each well were examined for linear reaction kinetics and fit statistics (R^2, 95% confidence interval, absolute sum of squares). Initial velocity (0 minutes to 20+ minutes) from each reaction was determined from the slope of a plot of relative fluorescence units vs time (minutes) and then plotted against inhibitor concentration to estimate IC50 from Log [Inhibitor] vs Response, Variable Slope model in GraphPad Prism from GraphPad Software (San Diego, Calif.). […]
(§3) The reported IC50_APP and IC50 values are in units of nM.

BTK = BTK (Homo sapiens, UniProt Q06187); assay: Omnia assay for potency assessment against BTK; type: biochemical
Description: B. Omnia Assay Protocol for Potency Assessment Against BTK
Below describes the protocol using EGFR-WT and EGFR-T790M/L858R and the protocol BTK-optimized reagent conditions then follow.
The mechanics of the assay platform are best described by the vendor (Invitrogen, Carlsbad, Calif.) on their website at the following URL: http://www.invitrogen.com/content.cfm?pageid=11338 or http://www.invitrogen.com/site/us/en/home/Products-and-Services/Applications/Drug-Discovery/Target-and-Lead-Identification-and-Validation/KinaseBiology/KB-Misc/Biochemical-Assays/Omnia-Kinase-Assays.html.
Briefly, 10× stocks of EGFR-WT (PV3872) from Invitrogen and EGFR-T790M/L858R (40350) from BPS Bioscience, San Diego, Calif., 1.13×ATP (AS001A) and appropriate Tyr-Sox conjugated peptide substrates (KCZ1001) were prepared in 1× kinase reaction buffer consisting of 20 mM Tris, pH 7.5, 5 mM MgCl2, 1 mM EGTA, 5 mM β-glycerophosphate, 5% glycerol (10× stock, KB002A) and 0.2 mM DTT (DS001A). 5 μL of each enzyme were pre-incubated in a Corning (#3574) 384-well, white, non-binding surface microtiter plate (Corning, N.Y.) for 30 min. at 27° C. with a 0.5 μL volume of 50% DMSO and serially diluted compounds prepared in 50% DMSO. Kinase reactions were started with the addition of 45 μL of the ATP/Tyr-Sox peptide substrate mix and monitored every 30-90 seconds for 60 minutes at λex360/λem485 in a Synergy^4 plate reader from BioTek (Winooski, Vt.). At the conclusion of each assay, progress curves from each well were examined for linear reaction kinetics and fit statistics (R^2, 95% confidence interval, absolute sum of squares). Initial velocity (0 minutes to ˜30 minutes) from each reaction was determined from the slope of a plot of relative fluorescence units vs time (minutes) and then plotted against inhibitor concentration to estimate IC50 from log [Inhibitor] vs Response, Variable Slope model in GraphPad Prism from GraphPad Software (San Diego, Calif.).
The modified BTK-optimized reagent conditions for the above protocol are:
[BTK]=5 nM, [ATP]=[…], [Y5-Sox]=[…] (ATP KMapp˜[…]).
as §3

CKIT D816V = CKIT D816V (Homo sapiens, UniProt P10721, D816V); assay: c-Kit mutant Omnia kinase assay; type: biochemical; conditions: read-out: IC50_APP CKIT D816V
FLT3 = biological target: T1, FLT3 (Homo sapiens, UniProt P36888); assay: FLT-3 Omnia continuous-read kinase assay; type: biochemical
T1 construct: purchased PV3182
T1 sequence (P36888 27-993): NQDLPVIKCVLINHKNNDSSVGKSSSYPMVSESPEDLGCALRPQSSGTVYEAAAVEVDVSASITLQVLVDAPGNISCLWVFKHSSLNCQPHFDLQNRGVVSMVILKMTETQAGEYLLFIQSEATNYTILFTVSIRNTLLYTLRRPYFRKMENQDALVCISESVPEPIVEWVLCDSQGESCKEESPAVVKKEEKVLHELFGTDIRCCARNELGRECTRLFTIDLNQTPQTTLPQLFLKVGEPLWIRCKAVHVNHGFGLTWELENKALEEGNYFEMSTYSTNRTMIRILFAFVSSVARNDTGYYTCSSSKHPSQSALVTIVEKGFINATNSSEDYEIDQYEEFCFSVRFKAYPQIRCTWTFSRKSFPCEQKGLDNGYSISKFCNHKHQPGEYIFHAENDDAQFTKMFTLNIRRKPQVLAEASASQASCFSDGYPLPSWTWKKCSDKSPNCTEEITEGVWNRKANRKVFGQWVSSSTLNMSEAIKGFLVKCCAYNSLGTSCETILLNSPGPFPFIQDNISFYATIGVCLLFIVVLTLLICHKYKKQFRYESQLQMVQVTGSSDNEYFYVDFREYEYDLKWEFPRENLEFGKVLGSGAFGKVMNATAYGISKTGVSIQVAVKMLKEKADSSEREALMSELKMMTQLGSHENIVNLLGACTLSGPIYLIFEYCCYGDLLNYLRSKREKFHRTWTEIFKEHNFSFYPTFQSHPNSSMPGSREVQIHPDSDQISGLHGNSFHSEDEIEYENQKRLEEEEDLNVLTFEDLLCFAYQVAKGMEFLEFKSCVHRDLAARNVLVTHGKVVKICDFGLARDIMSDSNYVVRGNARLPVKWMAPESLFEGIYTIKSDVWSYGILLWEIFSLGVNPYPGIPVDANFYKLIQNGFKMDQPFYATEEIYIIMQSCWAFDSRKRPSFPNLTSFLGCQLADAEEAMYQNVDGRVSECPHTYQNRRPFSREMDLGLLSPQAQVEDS
Protocol: as §1, §2
Briefly, 10× stocks of KDR from Invitrogen or BPS Bioscience (PV3660 or 40301) and FLT-3 (PV3182) enzymes, 1.13×ATP (AS001A) and Y9-Sox or Y12-Sox peptide substrates (KCZ1001) were prepared in 1× kinase reaction buffer consisting of 20 mM Tris, pH 7.5, 5 mM MgCl2, 1 mM EGTA, 5 mM β-glycerophosphate, 5% glycerol (10× stock, KB002A) and 0.2 mM DTT (DS001A). 5 μL of enzyme were pre-incubated in a Corning (#3574) 384-well, white, non-binding surface microtiter plate (Corning, N.Y.) for 30 min at 27° C. with a 0.5 μL volume of 50% DMSO and serially diluted compounds prepared in 50% DMSO. Kinase reactions were started with the addition of 45 μL of the ATP/Y9 or Y5-Sox peptide substrate mix and monitored every 30-90 seconds for 60 minutes at λex360/λem485 in a Synergy^4 plate reader from BioTek (Winooski, Vt.). At the conclusion of each assay, progress curves from each well were examined for linear reaction kinetics and fit statistics (R^2, 95% confidence interval, absolute sum of squares). Initial velocity (0 minutes to 20+ minutes) from each reaction was determined from the slope of a plot of relative fluorescence units vs time (minutes) and then plotted against inhibitor concentration to estimate IC50 from Log [Inhibitor] vs Response, Variable Slope model in GraphPad Prism from GraphPad Software (San Diego, Calif.).
[FLT-3]=15 nM, [ATP]=500 μM and [Y5-Sox peptide]=10 μM (ATP KMapp=470 μM)
as §3

CKIT = CKIT (Homo sapiens, UniProt P10721); assay: c-Kit Omnia kinase assay; type: biochemical; conditions: read-out: IC50_APP CKIT
FAK (PTK2) = FAK (PTK2) (Homo sapiens, UniProt Q05397); assay: Mass spectral analysis of intact FAK after incubation with compound; type: binding; conditions: 1 hr, 10× excess of compound to protein, intact protein MALDI
Protocol: Intact FAK (PTK2) was incubated for 1 hr at a 10× fold access of compound IV-29 to protein. 3 ul aliquots of the samples were diluted with 10 ul of 0.1% TFA prior to micro C4 ZipTipping directly onto the MALDI target using Sinapinic acid as the desorption matrix (10 mg/ml in 0.1% TFA:Acetonitrile 50:50). Mass spec analysis was run on intact FAK (PTK2) protein (m/z 146,672 Da), and on FAK that was incubated with compound IV-29 (mw=669.2).

[1] = 30 min pre-incubation, read-out: IC50_APP KDR
[2] = reversible reference compounds, read-out: IC50 KDR
[3] = reversible reference compounds, read-out: IC50 BTK
[4] = 30 min pre-incubation, [ATP]=500 μM, read-out: IC50_APP FLT3
[5] = 30 min pre-incubation, read-out: IC50_APP BTK

Chain of KDR (P35968 20-1356): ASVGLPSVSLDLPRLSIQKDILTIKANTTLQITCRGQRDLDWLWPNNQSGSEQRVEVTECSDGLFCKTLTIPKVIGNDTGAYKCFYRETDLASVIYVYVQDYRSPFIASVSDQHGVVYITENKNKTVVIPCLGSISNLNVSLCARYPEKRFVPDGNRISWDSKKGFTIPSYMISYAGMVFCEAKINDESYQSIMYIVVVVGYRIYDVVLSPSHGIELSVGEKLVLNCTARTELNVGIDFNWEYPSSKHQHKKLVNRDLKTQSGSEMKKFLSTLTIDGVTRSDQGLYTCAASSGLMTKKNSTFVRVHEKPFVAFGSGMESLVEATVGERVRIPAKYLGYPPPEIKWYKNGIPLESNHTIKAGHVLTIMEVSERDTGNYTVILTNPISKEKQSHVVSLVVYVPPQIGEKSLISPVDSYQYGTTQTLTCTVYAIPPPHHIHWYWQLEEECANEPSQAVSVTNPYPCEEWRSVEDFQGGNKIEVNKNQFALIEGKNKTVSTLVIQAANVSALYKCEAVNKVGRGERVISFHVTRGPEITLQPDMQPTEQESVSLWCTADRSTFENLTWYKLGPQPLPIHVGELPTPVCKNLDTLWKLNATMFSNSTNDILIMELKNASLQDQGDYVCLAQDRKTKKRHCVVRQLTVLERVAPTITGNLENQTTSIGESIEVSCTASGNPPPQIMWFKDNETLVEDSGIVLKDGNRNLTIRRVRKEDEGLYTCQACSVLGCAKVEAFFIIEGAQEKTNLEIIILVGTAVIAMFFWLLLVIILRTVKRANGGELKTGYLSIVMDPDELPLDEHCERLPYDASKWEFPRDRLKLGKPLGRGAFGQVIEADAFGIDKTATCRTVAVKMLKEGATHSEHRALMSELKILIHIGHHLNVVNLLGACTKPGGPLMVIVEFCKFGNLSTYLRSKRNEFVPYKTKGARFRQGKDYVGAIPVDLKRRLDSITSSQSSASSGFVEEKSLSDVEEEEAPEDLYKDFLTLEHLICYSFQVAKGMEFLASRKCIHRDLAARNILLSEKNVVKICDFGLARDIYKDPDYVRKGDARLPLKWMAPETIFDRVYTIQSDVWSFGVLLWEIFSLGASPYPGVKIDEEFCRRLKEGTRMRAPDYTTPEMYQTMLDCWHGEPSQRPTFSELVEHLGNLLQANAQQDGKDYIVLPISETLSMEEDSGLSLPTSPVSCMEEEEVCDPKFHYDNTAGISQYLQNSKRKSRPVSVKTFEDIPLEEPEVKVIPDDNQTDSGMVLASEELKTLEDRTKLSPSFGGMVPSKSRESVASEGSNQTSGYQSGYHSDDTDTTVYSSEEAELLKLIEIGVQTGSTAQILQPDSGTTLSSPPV
Chain of BTK (Q06187 whole entry): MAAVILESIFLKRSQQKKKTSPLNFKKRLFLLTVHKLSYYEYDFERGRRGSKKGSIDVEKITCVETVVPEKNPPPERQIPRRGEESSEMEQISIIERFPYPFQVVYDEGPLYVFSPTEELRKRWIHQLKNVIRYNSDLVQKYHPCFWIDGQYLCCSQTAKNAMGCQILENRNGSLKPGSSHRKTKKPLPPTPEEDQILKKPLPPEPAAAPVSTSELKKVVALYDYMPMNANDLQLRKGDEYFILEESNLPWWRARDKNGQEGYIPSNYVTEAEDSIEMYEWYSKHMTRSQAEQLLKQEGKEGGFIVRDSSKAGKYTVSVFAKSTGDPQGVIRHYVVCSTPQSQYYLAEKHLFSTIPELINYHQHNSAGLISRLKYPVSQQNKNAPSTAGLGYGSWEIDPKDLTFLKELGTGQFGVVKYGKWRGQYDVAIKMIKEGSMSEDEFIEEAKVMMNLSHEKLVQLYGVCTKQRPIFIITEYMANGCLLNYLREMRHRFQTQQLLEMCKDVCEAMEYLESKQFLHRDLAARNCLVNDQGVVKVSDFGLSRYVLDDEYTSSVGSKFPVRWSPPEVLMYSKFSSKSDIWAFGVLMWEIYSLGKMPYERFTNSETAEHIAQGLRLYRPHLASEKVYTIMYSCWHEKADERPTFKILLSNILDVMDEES
Chain of CKIT D816V (P10721 26-976 D816V): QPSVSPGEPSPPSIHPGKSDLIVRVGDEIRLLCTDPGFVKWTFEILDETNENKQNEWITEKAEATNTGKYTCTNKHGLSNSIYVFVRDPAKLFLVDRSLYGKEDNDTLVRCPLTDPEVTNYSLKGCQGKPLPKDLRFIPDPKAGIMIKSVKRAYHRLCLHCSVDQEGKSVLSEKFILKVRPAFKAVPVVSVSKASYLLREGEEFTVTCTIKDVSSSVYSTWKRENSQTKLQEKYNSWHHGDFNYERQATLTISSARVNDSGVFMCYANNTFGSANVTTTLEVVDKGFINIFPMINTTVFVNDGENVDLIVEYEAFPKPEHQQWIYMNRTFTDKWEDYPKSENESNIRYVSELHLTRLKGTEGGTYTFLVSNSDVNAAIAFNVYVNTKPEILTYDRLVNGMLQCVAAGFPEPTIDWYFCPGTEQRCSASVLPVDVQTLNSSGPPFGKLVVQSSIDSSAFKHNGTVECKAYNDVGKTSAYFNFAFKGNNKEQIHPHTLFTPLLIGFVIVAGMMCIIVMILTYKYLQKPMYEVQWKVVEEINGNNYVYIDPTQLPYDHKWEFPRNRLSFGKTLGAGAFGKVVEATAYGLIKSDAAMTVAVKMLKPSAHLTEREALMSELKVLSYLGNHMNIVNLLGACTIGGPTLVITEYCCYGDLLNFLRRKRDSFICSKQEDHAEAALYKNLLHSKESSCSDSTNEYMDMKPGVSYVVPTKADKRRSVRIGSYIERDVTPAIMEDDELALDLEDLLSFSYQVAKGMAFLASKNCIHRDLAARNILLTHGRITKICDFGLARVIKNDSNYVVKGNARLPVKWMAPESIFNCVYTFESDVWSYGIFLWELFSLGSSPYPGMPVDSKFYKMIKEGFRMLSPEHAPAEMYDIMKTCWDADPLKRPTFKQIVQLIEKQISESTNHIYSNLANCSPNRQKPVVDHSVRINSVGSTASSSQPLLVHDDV
Chain of CKIT (P10721 26-976): as the sequence (P10721 26-976 D816V) above, with V791D counted along it
Chain of FAK (PTK2) (Q05397 whole entry): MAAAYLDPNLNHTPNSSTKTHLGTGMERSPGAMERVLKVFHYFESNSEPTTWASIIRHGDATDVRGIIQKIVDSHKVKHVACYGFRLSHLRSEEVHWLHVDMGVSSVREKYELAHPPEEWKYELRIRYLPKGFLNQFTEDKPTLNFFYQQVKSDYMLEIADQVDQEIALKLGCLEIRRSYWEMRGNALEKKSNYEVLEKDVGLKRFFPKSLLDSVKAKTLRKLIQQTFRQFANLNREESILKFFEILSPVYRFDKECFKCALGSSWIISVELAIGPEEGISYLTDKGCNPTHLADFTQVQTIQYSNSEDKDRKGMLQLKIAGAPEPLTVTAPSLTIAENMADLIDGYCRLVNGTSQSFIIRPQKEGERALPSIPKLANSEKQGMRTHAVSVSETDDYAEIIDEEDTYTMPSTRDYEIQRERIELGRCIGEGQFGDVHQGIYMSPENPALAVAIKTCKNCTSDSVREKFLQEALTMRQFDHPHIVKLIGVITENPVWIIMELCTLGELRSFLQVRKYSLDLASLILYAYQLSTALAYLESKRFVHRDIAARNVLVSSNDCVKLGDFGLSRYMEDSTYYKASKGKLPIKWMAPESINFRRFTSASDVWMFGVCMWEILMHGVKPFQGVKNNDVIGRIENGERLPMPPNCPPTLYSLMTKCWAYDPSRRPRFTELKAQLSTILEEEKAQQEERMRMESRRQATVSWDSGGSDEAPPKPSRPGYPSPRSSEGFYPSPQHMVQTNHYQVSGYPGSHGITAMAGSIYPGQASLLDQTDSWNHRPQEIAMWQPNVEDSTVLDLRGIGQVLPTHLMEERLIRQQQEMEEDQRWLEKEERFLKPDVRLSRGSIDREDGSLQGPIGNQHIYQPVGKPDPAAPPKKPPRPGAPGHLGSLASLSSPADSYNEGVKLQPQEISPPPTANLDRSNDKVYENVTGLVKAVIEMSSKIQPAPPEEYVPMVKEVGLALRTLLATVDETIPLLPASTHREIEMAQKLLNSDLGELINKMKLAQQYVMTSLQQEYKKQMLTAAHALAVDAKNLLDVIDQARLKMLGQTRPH

Structure (SMILES): C=CC(=O)Nc1cc(NC(=O)Nc2ccc(Oc3ccnc(C(=O)NC)c3)cc2)ccc1Cl [XVIII-15]
- IC50 (KDR; [1]): 462 nM

Structure (SMILES): CCC(=O)N1CCC(Sc2nc(Nc3ncc(C#N)s3)cc(N3CCN(C)CC3)n2)CC1 [Reversible Reference Compound 2, 2-(2-(1-Propionylpiperidin-4-ylthio)-6-(4-methylpiperazin-1-yl)pyrimidin-4-ylamino)thiazole-5-carbonitrile, reference compound]
- IC50 (KDR; [2]): 95.7 nM
- IC50 (BTK; [3]): 184 nM

Structure (SMILES): C=CC(=O)Nc1ccc(Sc2nc(Nc3cc(C)n[nH]3)cc(N3CCN(C)CC3)n2)cc1 [II-53, N-(4-(4-(3-Methyl-1H-pyrazol-5-ylamino)-6-(4-methylpiperiazin-1-yl)pyrimidin-2ylthio)phenyl)acrylamide]
- IC50 (CKIT D816V): 127 nM
- IC50 (FLT3; [4]): 3.76 nM
- IC50 (KDR; [1]): 15.2 nM
- IC50 (CKIT): 114 nM

Structure (SMILES): CC#CC(=O)N1CCC(Sc2nc(Nc3ncc(C#N)s3)cc(N3CCN(C)CC3)n2)CC1 [II-3]
- IC50 (KDR; [1]): 290 nM
- IC50 (BTK; [5]): 459 nM

Structure (SMILES): CNC(=O)c1cc(Oc2ccc(NC(=O)Nc3ccc(NC(=O)/C=C/CN(C)C)c(C(F)(F)F)c3)cc2)ccn1 [XVIII-12]
- IC50 (CKIT D816V): 2.5 nM
- IC50 (FLT3; [4]): 1.07 nM
- IC50 (KDR; [1]): 148 nM
- IC50 (CKIT): 10.4 nM

Structure (SMILES): C=CC(=O)Nc1ccc(S(=O)(=O)N2CCN(c3ccc(Nc4ncc(Cl)c(Nc5ccccc5C(=O)NC)n4)c(OC)c3)CC2)cc1 [IV-31, 2-(2-{4-[4-(4-Acryloylamino-benzenesulfonyl)-piperazin-1-yl]-2-methoxy-phenylamino}-5-chloro-pyrimidin-4-ylamino)-N-methyl-benzamide]
- modification of FAK (PTK2) by compound, mass spec (FAK (PTK2)): partial modification of FAK

Structure (SMILES): C=CC(=O)NCCSc1nc(Nc2ncc(C#N)s2)cc(N2CCN(C)CC2)n1 [II-4, N-(2-(4-(5-cyanothiazol-2-ylamino)-6-(4-methylpiperazin-1-yl)pyrimidin-2-ylthio)ethyl)acrylamide]
- IC50 (KDR; [1]): 111 nM
- IC50 (BTK; [5]): 5080 nM

Structure (SMILES): C=CC(=O)N(C)c1ccc(NC(=O)Nc2ccc(Oc3ccnc(C(=O)NC)c3)cc2)cc1 [XVIII-16, 4-(4-(3-(4-(N-methylacrylamido)phenyl)ureido)phenoxy)-N-methylpicolinamide]
- IC50 (KDR; [1]): 1340 nM

Structure (SMILES): CN(C)C/C=C/C(=O)N1CCC(Sc2nc(Nc3ncc(C#N)s3)cc(N3CCN(C)CC3)n2)CC1 [II-5]
- IC50 (KDR; [1]): 39.7 nM
- IC50 (BTK; [5]): 106 nM

Structure (SMILES): C=CC(=O)Nc1ccc(Sc2nc(Nc3ncc(C#N)s3)cc(N3CCN(C)CC3)n2)cc1 [II-1, N-(4-(4-(5-Cyanothiazol-2-ylamino)-6-(4-methylpiperazin-1-yl)pyrimidin-2-ylthio)phenyl)acrylamide]
- IC50 (FLT3; [4]): 3.15 nM
- IC50 (KDR; [1]): 39.3 nM
- IC50 (BTK; [5]): 6170 nM

Structure (SMILES): CCC(=O)Nc1ccc(Sc2nc(Nc3ncc(C#N)s3)cc(N3CCN(C)CC3)n2)cc1 [Reversible Reference Compound 1, N-(4-(4-(5-Cyanothiazol-2-ylamino)-6-(4-methylpiperazin-1-yl)pyrimidin-2-ylthio)phenyl)propionamide, reference compound]
- IC50 (FLT3; reversible reference compounds, read-out: IC50 FLT3): 5.84 nM
- IC50 (KDR; [2]): 254 nM
- IC50 (BTK; [3]): 1640 nM
